Experimental data taken from paper PMC8618024 (2021).
Entries after “also recorded” stand apart in the source; their conditions may differ.

How the values were obtained:
[1] = Strain m6 cells resuspended in sterile MSM (mineral salt medium); settings: Sphingopyxis sp. m6, 30 °C, up to six days
[2] = Sphingomonas sp. B-9 cells; settings: cited from earlier work
[3] = suspension of HMBP-pET28a/BL21 (negative control) in sterile water; settings: HMBP-pET28a/BL21, 37 °C, up to 144 h
[4] = natural microbial communities in sediments; settings: cited from earlier work
[5] = Strain m6 cells in MSM, pH 7, at 40 °C; settings: Sphingopyxis sp. m6, 40 °C, up to six days
recombinant MlrA = test: CEs (cell-free extracts) of recombinant mlrA-HMBP-pET28a/BL21 in sterile water; settings: mlrA-HMBP-pET28a/BL21, 37 °C, up to 48 h
[6] = CEs from HMBP-pET28a/BL21 (negative control) in sterile water; settings: HMBP-pET28a/BL21, 37 °C, up to 12 h
MlrA = test: suspension of intact recombinant mlrA-HMBP-pET28a/BL21 in sterile water; settings: mlrA-HMBP-pET28a/BL21, 37 °C, up to 144 h

- not cleaved [3]: remaining essentially unchanged
- cleaved bond (recombinant MlrA): Arg-Adda, first_seen
- not cleaved [6]: remaining essentially unchanged
- cleaved bond (MlrA): Arg-Adda, first_seen
Substance: D-MeAsp, L-Arg, Adda, D-Glu, and Mdhb
- cleaved bond [1]: Arg-Adda, first_seen; also recorded: Adda-Glu; also recorded: Glu-Mdhb; also recorded: Mdhb-MeAsp
- fragment found [2]: linear NOD and Adda
- fragment found [4]: linear NOD and Adda and H-Glu-Mdhb-MeAsp-Arg-OH and H-Adda-Glu-Mdhb-MeAsp-OH and H-Adda-Glu-Mdhb-MeAsp-Cit-OH
- not cleaved [5]: the toxin concentration barely decreased
